The source of these data is patent publication US20180344725A1, “QUINOLONE CHALCONE COMPOUNDS AND USES THEREOF” (priority 2015, published 2018).

The nature of one data set: Body weight analysis. Type of data set: in vivo. To be noted: ATH490 athymic mice; D0-D30. The protocol:
(§1) Animals were monitored for food and water consumption every day, and their body weights and tumor volumes were measured twice per week. Tumor volumes were measured with a digital caliper and were determined by using the following formula: ½ length×width^2. Blood samples were collected via cardiac puncture and processed further for ALT and AST measurements. The animals were then immediately euthanized by carbon dioxide. Tumors and vital organs (spleen, kidney, liver and lung) were collected and fixed in 10% buffered formalin at 4° C. overnight before being processed for paraffin embedding. The paraffin-embedded blocks were then cut into 4-5 μm thick sections. Each section of tumors and organs was stained with hematoxylin and eosin (H&E).
(§2) Changes in body weight, hemoglobin (Hb) and the amount and ratio of alanine transaminase (ALT)/aspartate transaminase (AST) were used to measure toxic effects. In addition, vital organs (liver, spleen, kidney and lung) were analyzed by […] after they were harvested, fixed, processed, paraffin-embedded, sectioned, and stained as described above.
. Six-week old ATH40 athymic nude mice were treated as indicated in the legend. “Tax” denotes that paclitaxel was injected by i.v. as described in Table 11. D0-D30 denotes day 0 to day 30 post-drug treatment. The numbers in brackets show drug concentrations in mg/kg body weight. […]

The next data set deals with MCF10CA1a. Nature of the data set: SRB cell viability, isogenic breast cell lines. Type of data set: cell-based. To be noted: MCF10CA1a (MCF10Ala [sic]), 72 hours; for Cell survival rate: 0.39 μM; for viability at 0.03125 µM: 31.25 nM. The protocol: FIG. 9 illustrates that CTR-17, CTR-20, CTR-21 and CTR-32 preferentially kill the fully malignant […] breast cancer cells over the pre-malignant MCF10AT1 and the non-malignant MCF-10A breast cells. Cells were treated with (A) CTR-17 at doses of 0.10, 0.39, 1.56 or 6.25 μM; (B) CTR-20 at doses of 0.10, 0.39, 1.56 or 6.25 μM; (C) CTR-21 at doses of 7.81, 15.63, 31.25, 62.5, 125 or 250 nM; or (D) CTR-32 at doses of 7.81, 15.63, 31.25, 62.5, 125 or 250 nM for 72 hours. Cell viability was determined using an SRB assay.
All of the cell lines used were purchased from ATCC and cultured in RPMI-1640 supplemented with 10% fetal bovine serum and antibiotics (100 units penicillin/100 μg/ml streptomycin), unless stated otherwise. 1845B5 and MCF-10A non-cancer breast cell lines were cultured in DME/F12 medium supplemented with 10% fetal bovine serum, antibiotics and growth factors. KB-3-1 is a human epidermal carcinoma cell line and KB-C-2 is its isogenic multidrug-resistant cell line with over-expressing ABCB1/P-gp. […] The human small cell lung carcinoma H69 cell line and its multidrug-resistant MRP1-overexpressing isogenic H69AR cell line were purchased from ATCC. The H69AR cell line was established in the presence of increasing concentrations of Adriamycin (doxorubicin). H69 cells grow as large multi-cell aggregates, making it difficult to accurately count cell numbers. Therefore, the cytotoxicity results obtained from H69AR cells were compared to SW1271, a small cell lung carcinoma cell line without a multidrug-resistant phenotype. The IL-6 dependent bortezomib-resistant ANBL6-BR cell line was further supplemented with 1 ng/ml of IL-6. The MCF10AT1 and MCF10CA1a cell lines are isogenic to the MCF10A cell line, and obtained from Dr. Valerie Weaver at the Center for Bioengineering and Tissue Regeneration, UCSF, CA, USA. MCF10AT1 is a premalignant cell line generated by transforming MCF10A with c-Ha-Ras; and MCF10CA1a was isolated by selecting malignant cells after MCF10AT1 cells were engrafted into mice (Liu & Lin 2004; Marella et al. 2009). The MCF10AT1 and MCF10CA1a cells were cultured in DMEM supplemented with 10% FBS (volume/volume). MDA-MB231TaxR cell line was generated in house by culturing MDA-MB231 cells in gradually increasing doses of paclitaxel over one-year period, and finally maintained at 100 nM paclitaxel. The drug-resistant cells were cultured in the absence of drug for at least one passage before carrying out experiments. All cells were maintained in a humidified incubator at 37° C. (5% CO2/95% air). Cell line authentication was performed using short tandem repeat (STR) profiling.
For (anti)proliferation assays, 4,000-5,000 cells/well of the 96-well clustered dish were incubated for 16 hours, as described previously (Hu et al., 2008; Skehan et al., 1990). After 16 hours, culture medium was replaced with fresh medium containing different dilutions of test compounds dissolved in DMSO. Some wells were treated with 100 μl of 10% trichloroacetic acid (TCA) as a negative control and sham (medium with dimethyl sulfoxide; DMSO) treated cells were used as a positive control. After 72 hours post-incubation, medium was removed and cells were fixed with 10% TCA at 4° C. for 1 hour. TCA was removed and cells were washed with cold tap water, and plate was air-dried, followed by addition of 50 μl of 0.4% SRB staining solution to each well. After 30 minutes incubation, SRB staining solution was removed. Cells were washed with 1% acetic acid solution, and then washed with tap water to remove unbound staining solution, followed by air-drying. 200 μl of 10 mM (pH10.5) trizma base buffer was added to each well to solubilise macromolecules. SRB stained macromolecules were determined at a 540 nm wavelength using an automated plate reader (Synergy H4 Hybrid Multi-Mode Microplate Reader, BioTek, Winooski, Vt.). Cell growth (inhibition) was calculated by the following formula: […]

A short description of data set [1]: Toxicology analysis of spleen (H&E). Type of data set: in vivo, mice. Set-up: key to Red Pulp (RP): Myeloid elements: ↑↑: Double and single upward arrows indicate highly and moderately increased, respectively; ↑: Double and single upward arrows indicate highly and moderately increased, respectively. To be noted: 30 days, Paclitaxel 10 mg/kg, CTR 30 mg/kg, or Tax (5) + CTR (15). The method, then:
as §1, §2
ATH490 athymic mice were sham-treated (vehicle only) or treated with compounds of the indicated doses for 30 days, followed by toxicity analysis after spleen tissues were H & E stained. The numbers in the brackets are mg per kg of body weight. Arrows indicate the presence of macrophages in the red pulp (RP). Images were taken using a Zeiss EPI-fluorescent microscope (10× objective). Drug administration was carried out as described in Table 11.

As a reminder, the viability is the share of living cells, or the viability signal relative to a control.

Regarding `COc1ccc2[nH]c(=O)c(/C=C/C(=O)c3ccccc3OC)cc2c1` [CTR-20, (E)-6-Methoxy-3-(3-(2-methoxyphenyl)-3-oxoprop-1-enyl) quinolin-2(1H)-one], in “Body weight analysis”, the “toxic side effect as determined by the changes in body weights” value is listed as “Neither CTR-17 nor CTR-20 caused any notable toxic side effect”. The Cell survival rate in the data set with MCF10CA1a was found to be 10%. In addition, in data set [1], the Capsule entry is recorded as “Normal”, the “Red Pulp (RP): Myeloid elements” value is given as “elements: ↑” and the “White pulp (WP)” value was “Less but bigger”.
For the compound `COc1ccccc1C(=O)/C=C/c1cc2ccccc2[nH]c1=O` [CTR-17, (E)-3-(3-(2-Methoxyphenyl)-3-oxoprop-1-enyl)quinolin-2(1H)-one], the “toxic side effect as determined by the changes in body weights” value in the data set “Body weight analysis” is on record as “Neither CTR-17 nor CTR-20 caused any notable toxic side effect”. In addition, the Cell survival rate in the data set with MCF10CA1a is listed as 39%. Further, in data set [1], the Capsule entry is recorded as “Normal”, the “Red Pulp (RP): Myeloid elements” value is given as “elements: ↑” and the “White pulp (WP)” value is reported as “Less but bigger”.
In the case of `CCOc1ccccc1C(=O)/C=C/c1cc2ccccc2[nH]c1=O` [CTR-32, (E)-3-(3-(2-ethoxyphenyl)-3-oxoprop-1-enyl)quinolin-2(1H)-one], in the data set on MCF10CA1a, the viability at 0.03125 µM is 40%.
As for `CC(=O)O[C@H]1C(=O)[C@@]2(C)[C@H]([C@H](OC(=O)c3ccccc3)[C@]3(O)C[C@H](OC(=O)[C@H](O)[C@@H](NC(=O)c4ccccc4)c4ccccc4)C(C)=C1C3(C)C)[C@]1(OC(C)=O)CO[C@@H]1C[C@@H]2O` [Paclitaxel, reference compound], in data set [1], the Capsule entry is listed as “Normal”, the “Red Pulp (RP): Myeloid elements” value is given as “elements: ↑↑^a” and the “White pulp (WP)” value is “Less but bigger”.
As for `COc1ccccc1C(=O)/C=C/c1cc2cccc(OC)c2[nH]c1=O` [CTR-21, (E)-8-methoxy-3-(3-(2-methoxyphenyl)-3-oxoprop-1-enyl) quinolin-2(1H)-one], the viability at 0.03125 µM with MCF10CA1a is 10%.
